The subject of assay [1] is synchronised P. falciparum parasites. Put plainly: In vitro stage-dependent antimalarial activity. The assay is classed as cell-based. The following applies: 10× IC50, three distinct 12 hour periods of the intra-erythrocytic life cycle; re-invasion and out-growth. The method, then: Stage-specific compound treatment effects were elucidated using highly synchronized parasites in 48-well plates with a starting parasitemia of 0.75% and a hematocrit of 2%. […] After treatment, parasites were washed with warm RPMI 1640 medium and placed back into culture without test compound for analysis of re-invasion after completion of the cell cycle in which treatment occurred. Washed parasites after treatment were also diluted 1 : 16 and allowed to grow without compound for an additional two cell cycles (4 days). Parasitemia after re-invasion or after 4 day growth was quantified on infected cells fixed in 0.025% glutaraldehyde and stained with 2× SYBR Green I (Lonza) in PBS.

The next assay addresses T1, G9a (Homo sapiens, UniProt Q96KQ7).
T1 sequence (Q96KQ7 1-1210): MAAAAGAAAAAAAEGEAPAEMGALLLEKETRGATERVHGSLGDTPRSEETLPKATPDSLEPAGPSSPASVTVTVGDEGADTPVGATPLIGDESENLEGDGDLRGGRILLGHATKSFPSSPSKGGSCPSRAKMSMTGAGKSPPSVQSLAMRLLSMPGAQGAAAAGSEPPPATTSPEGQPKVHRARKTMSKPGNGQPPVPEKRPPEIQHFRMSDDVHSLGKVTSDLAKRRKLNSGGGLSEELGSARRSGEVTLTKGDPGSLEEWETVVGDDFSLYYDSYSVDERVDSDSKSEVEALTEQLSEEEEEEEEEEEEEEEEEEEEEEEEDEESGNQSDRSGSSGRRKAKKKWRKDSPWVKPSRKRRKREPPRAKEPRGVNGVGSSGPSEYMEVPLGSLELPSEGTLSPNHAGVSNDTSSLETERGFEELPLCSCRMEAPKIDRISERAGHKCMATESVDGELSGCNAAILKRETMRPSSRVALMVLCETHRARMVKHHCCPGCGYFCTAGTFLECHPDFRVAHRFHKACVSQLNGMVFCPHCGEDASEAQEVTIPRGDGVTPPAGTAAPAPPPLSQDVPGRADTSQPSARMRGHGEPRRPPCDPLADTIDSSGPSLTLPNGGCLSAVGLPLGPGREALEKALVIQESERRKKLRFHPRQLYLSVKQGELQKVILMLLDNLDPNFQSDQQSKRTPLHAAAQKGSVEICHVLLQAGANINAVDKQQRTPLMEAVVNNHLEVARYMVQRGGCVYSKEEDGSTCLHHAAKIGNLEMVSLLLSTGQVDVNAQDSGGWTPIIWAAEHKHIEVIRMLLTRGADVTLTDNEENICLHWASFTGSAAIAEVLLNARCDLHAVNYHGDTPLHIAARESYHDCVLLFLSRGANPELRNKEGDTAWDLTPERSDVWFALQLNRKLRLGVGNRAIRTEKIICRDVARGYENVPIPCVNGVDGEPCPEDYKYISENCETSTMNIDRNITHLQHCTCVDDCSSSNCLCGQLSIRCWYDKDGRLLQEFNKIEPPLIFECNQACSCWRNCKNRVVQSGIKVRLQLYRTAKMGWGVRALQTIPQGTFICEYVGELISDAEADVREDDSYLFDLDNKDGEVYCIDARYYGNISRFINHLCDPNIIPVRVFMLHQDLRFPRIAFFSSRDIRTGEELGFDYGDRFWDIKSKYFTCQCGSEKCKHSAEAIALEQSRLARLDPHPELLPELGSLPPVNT
As to conditions: SPA, 5 nM G9a, H3 1-25 peptide 0.8 μM, 3H-SAM 8 μM; for IC50: read-out: G9a IC50.

For assay [2], the system named is H3K9me3 levels in P. falciparum 3D7 parasites. Put plainly: Parasite histone methylation analysis (Western blot), H3K9me3. The class given is cell-based. As to conditions: 12 h treatment, relative to DMSO control. The method, then:
(§1) Parasites were treated with drugs for 12 h. After treatment, infected red blood cells were collected and lysed with PBS containing 0.15% saponin. Free parasites were lysed by bath sonication in 1% SDS-PBS and analysed by Western Blot. Blots were probed with primary antibodies specific for H3K4me3 (Abcam ab1012 1 : 1000), H3 core (Abcam ab1791, 1 : 3000) and H3K9me3 (Abcam ab8898, 1 : 1000) diluted in TBS-T (50 mM Tris pH 7.5, 150 mM NaCl, 0.05% Tween-20, 5% BSA), followed by anti-mouse HRP (GE NA931V) or anti-rabbit HRP (GE NA934V) secondary antibodies.
Background: In western blotting, separated proteins are transferred to a membrane and probed.

The subject of assay [3] is H3K4me3 levels in P. falciparum 3D7 parasites. Put plainly: Parasite histone methylation analysis (Western blot), H3K4me3. The assay is classed as cell-based. As to conditions: 12 h treatment, relative to DMSO control. The method, then: as §1
In assay [4] the test system is P. falciparum 3D7 strain parasites. As to conditions: P. falciparum 3D7, three-day SYBR Green I assay.
The test system is the same in assay [5]. The following applies: P. falciparum 3D7, parasite-killing activity reported earlier, cited from earlier work; for IC50: read-out: Pf3D7 IC50.

Read-outs that look alike come from different tables or passages of the source.

A word on the IC50: it is the midpoint of a concentration-inhibition curve. Turning to `COc1cc2nc(N3CCN(C)CC3)cc(NC3CCN(Cc4ccccc4)CC3)c2cc1OC` [compound 89, N-(1-Benzylpiperidin-4-yl)-6,7-dimethoxy-2-(4-methylpiperazin-1-yl)quinolin-4-amine], the stage-dependent killing phenotype entry in assay [1] was “erythrocytic stage-independent killing phenotype”. For the same compound, the IC50 at G9a stood at 21 nM. For the same compound, the H3K9me3 levels entry in assay [2] was “decrease”. The H3K4me3 levels entry in assay [3] is given as “decrease”.
As for `COc1cc2c(NC3CCN(C)CC3)nc(NCCCN(C)C)nc2cc1OCc1ccccc1` [compound 63], on G9a, the IC50 is more than 1000 nM. Also, the “Pf3D7 IC50” value in assay [4] was “lost activity against Plasmodium”.
Turning to `COc1cc2nc(N3CCN(C)CC3)nc(NC3CCN(C)CC3)c2cc1OC` [compound 39], in assay [5], the “Pf3D7 IC50” value is “low Pf3D7 activity” and the IC50 is more than 300 nM.
`COc1cc2c(NC3CCN(C)CC3)nc(N3CCCN(C)CC3)nc2cc1OCCN(C)C` [compound 67]: the half-inhibitory concentration (IC50) in assay [5] was more than 2000 nM.
`COc1cc2c(NC3CCN(C)CC3)nc(N3CCCN(C)CC3)nc2cc1OCCCN(C)C` [compound 66, reference compound]: the IC50 in assay [5] is more than 2000 nM.
Turning to `COc1cc2nc(N3CCC(OC)CC3)cc(NC3CCN(Cc4ccccc4)CC3)c2cc1OC` [compound 90, N-(1-Benzylpiperidin-4-yl)-6,7-dimethoxy-2-(4-methoxypiperidin-1-yl)quinolin-4-amine], in assay [1], the stage-dependent killing phenotype entry is “erythrocytic stage-independent killing phenotype”. The IC50 on G9a came to 119 nM. Besides, the H3K9me3 levels entry in assay [2] is on record as “decrease”. Besides, the H3K4me3 levels result in assay [3] is “decrease”.
Regarding `COc1cc2cc(N3CCC(OC)CC3)nc(NC3CCN(Cc4ccccc4)CC3)c2cc1OC` [compound 86, N-(1-Benzylpiperidin-4-yl)-6,7-dimethoxy-3-(4-methoxypiperidin-1-yl)isoquinolin-1-amine], the IC50 at G9a was more than 50000 nM.
Take `COc1cc2nc(NCCCN(C)C)nc(NC3CCN(Cc4ccccc4)CC3)c2cc1OC` [compound 17]: on G9a, the “G9a IC50” value is given as “good G9a inhibition” and the IC50 was 123 nM. Besides, in assay [4], the “Pf3D7 IC50” value was “poor potency against Plasmodium”.
Consider `COc1cc2nc(N3CCCCC3)nc(NC3CCN(C(C)C)CC3)c2cc1OC` [compound 54], for which the IC50 on G9a was determined as 319 nM.
Take `COc1cc2nc(N3CCCCC3)nc(NC3CCN(Cc4ccc(C)cc4)CC3)c2cc1OC` [compound 26]: the IC50 at G9a is 690 nM.
On to `COc1cc2nc(N3CCCN(C)CC3)nc(NC3CCN(C4CCCCC4)CC3)c2cc1OC` [compound 48], for which, at G9a, the IC50 was found to be 55 nM.
Regarding `COc1cc2c(NC3CCN(Cc4ccccc4)CC3)nc(N3CCN(C)CC3)nc2cc1OCc1ccccc1` [compound 61], on G9a, the “G9a IC50” value is recorded as “virtually no G9a inhibition” and the concentration for half-maximal inhibition (IC50) was approximately 10000 nM.
Take `COc1cc2nc(N3CCN(C)CC3)nc(NC3CCN(C(C)C)CC3)c2cc1OC` [compound 52]: at G9a, the IC50 came out at 123 nM.
For the compound `COc1cc2nc(N3CC(C)CC(C)C3)nc(Nc3ccccc3)c2cc1OC` (centres unmarked) [compound 59], the IC50 on G9a was more than 10000 nM.
Take `COc1cc2nc(N3CCN(C)CC3)nc(NC3CCCCC3)c2cc1OC` [compound 55]: the IC50 at G9a amounted to 6440 nM.
Consider `COc1cc2c(NC3CCN(C(C)C)CC3)nc(N3CCN(C)CC3)nc2cc1OCCCN1CCCCC1` [compound 68], for which, on G9a, the IC50 stood at 4 nM.
For `COc1cc2nc(N3CC(C)CC(C)C3)nc(NC3CCN(Cc4ccccc4)CC3)c2cc1OC` (centres unmarked) [compound 14], on G9a, the “G9a IC50” value is “inactive against G9a” and the IC50 was approximately 10000 nM.
As for `COc1cccc(CN2CCC(Nc3nc(N4CCN(C)CC4)nc4cc(OC)c(OC)cc34)CC2)c1` [compound 24], on G9a, the IC50 was found to be 128 nM.
Same read-out and setting: then `COc1cc2nc(N3CCCCC3)nc(NC3CCN(CC4CCCCC4)CC3)c2cc1OC` [compound 46], with 295 nM.
Regarding `COc1cc2nc(N3CCCN(C)CC3)nc(NC3CCN(C)CC3)c2cc1OC` [compound 38], in assay [5], the “Pf3D7 IC50” value was “low Pf3D7 activity” and the IC50 was more than 300 nM.
Turning to `CCCCCCOc1cc2nc(N3CCN(C)CC3)nc(NC3CCN(Cc4ccccc4)CC3)c2cc1OC` [compound 77], the half-inhibitory concentration (IC50) at G9a was 114 nM.
For the compound `COc1cc2nc(N3CCCCC3)nc(NC3CCCN(Cc4ccccc4)C3)c2cc1OC` (centres unmarked) [compound 31], the half-inhibitory concentration (IC50) on G9a was approximately 1000 nM.
For the compound `COc1cc2nc(N3CCN(C)CC3)nc(NC3CCCN(Cc4ccccc4)C3)c2cc1OC` (centres unmarked) [compound 30], the concentration for half-maximal inhibition (IC50) on G9a was approximately 1000 nM.
As for `COc1cc2nc(N3CCC(c4ccccc4)CC3)nc(NC3CCN(Cc4ccccc4)CC3)c2cc1OC` [compound 16], the IC50 at G9a was more than 10000 nM.
In the case of `COc1cc2nc(N3CCCCC3)nc(NC3CCN(Cc4ccc(F)cc4)CC3)c2cc1OC` [compound 28], the half-inhibitory concentration (IC50) on G9a stood at 1210 nM.
On to `COc1cc2nc(N3CCCCC3)nc(NC3CCN(Cc4ccccc4C)CC3)c2cc1OC` [compound 27], for which, on G9a, the IC50 is approximately 1000 nM.
As for `COc1cc2nc(N3CCN(C)CC3)nc(NC3CCN(Cc4cccc(C)c4)CC3)c2cc1OC` [compound 18], on G9a, the IC50 stood at 116 nM.
`COc1cc2nc(N3CCN(C)CC3)nc(NC3CCN(Cc4ccc(F)cc4)CC3)c2cc1OC` [compound 21]: the half-maximal inhibitory concentration (IC50) on G9a was 112 nM.
With `COc1cc2nc(N3CC(C)CC(C)C3)nc(NC3CCN(C(C)=O)CC3)c2cc1OC` (centres unmarked) [compound 37], the IC50 on G9a is more than 1000 nM.
For the compound `COc1cc2c(NC3CCN(Cc4ccccc4)CC3)nc(N3CCN(C)CC3)nc2cc1OCCCN(C)C` [compound 70], at G9a, the IC50 is 8 nM.
For the compound `COc1cc2c(NC3CCN(Cc4ccccc4)CC3)nc(N3CCN(C)CC3)nc2cc1OCCCCSC` [compound 84], at G9a, the half-maximal inhibitory concentration (IC50) worked out at 575 nM.
On the same count and under the same terms, under `CCCCCCOc1cc2nc(N3CCCN(C)CC3)nc(NC3CCN(Cc4ccccc4)CC3)c2cc1OC` [compound 74] stands 39 nM; under `COc1cc2nc(N3CCN(c4ccccn4)CC3)nc(NC3CCN(C)CC3)c2cc1OC` [compound 41], more than 1000 nM.
As for `COc1cc2c(NC3CCN(Cc4ccccc4)CC3)nc(N3CCCN(C)CC3)nc2cc1OCCCN(C)C` [compound 69], the IC50 on G9a was less than 3 nM.
Turning to `COc1cc2nc(N3CCCCC3)nc(Nc3ccccc3)c2cc1OC` [compound 58], the half-maximal inhibitory concentration (IC50) on G9a is more than 10000 nM.
On the same count and under the same terms, then `COc1cc2nc(N3CCCN(C)CC3)nc(NC3CCN(C(C)C)CC3)c2cc1OC` [compound 51], with 55 nM; and `COc1cc2nc(N3CCCCC3)nc(NC3CCN(C(=O)c4ccccc4)CC3)c2cc1OC` [compound 36], with more than 10000 nM; and `CCCCOc1cc2nc(N3CCN(C)CC3)nc(NC3CCN(C(C)C)CC3)c2cc1OC` [compound 80], with 843 nM.
Take `COc1cc2nc(N3CCN(C)CC3)nc(NC3CCN(Cc4ccc(C)cc4)CC3)c2cc1OC` [compound 19]: at G9a, the IC50 came to 78 nM.
Still for that read-out and setting: then `COc1cc2nc(N3CCC(N(C)C)CC3)nc(NC3CCN(Cc4ccccc4)CC3)c2cc1OC` [compound 13], with 506 nM.

These data come from article PMC5708365, “Histone lysine methyltransferase structure activity relationships that allow for segregation of G9a inhibition and anti-Plasmodium activity” (MedChemComm, 2017).
